From patent US8980952B2, “Methods for treating brain swelling with a compound that blocks a non-selective cation channel” (University of Maryland, Baltimore, priority 2002, dated 2015) come the findings set out here.

Several values for one entry are separate records, joined by “and”; a condition that tells them apart may be missing. Equal values may be shown once. Entries after “also recorded” stand apart in the source; their conditions may differ. Read-outs that look alike come from different tables or passages of the source.

Data set [1] has as its system native reactive astrocytes (NRAs). The experiment in a line: Current clamp recording of membrane potential, nystatin-perforated patch. Type of data set: cell-based, rat.
For data set [2] the test system is unchanged. The experiment in a line: Cell blebbing and swelling after ATP depletion (SEM, phase contrast microscopy). Type of data set: cell-based, rat.
The test system is the same in data set [3]. The experiment in a line: Necrotic/apoptotic cell death by propidium iodide and annexin V staining. In kind it is cell-based, rat.
Data set [4] in a line: Thromboembolic (TE) MCA stroke model. Type of data set: in vivo, rat. As to conditions: for Infarct volume, percent of hemisphere volume: 75 ng/hr.
Data set [5] is described as follows: Thromboembolic stroke with tPA reperfusion at 6 hr, hemorrhagic conversion. Type of data set: in vivo, rat. The settings on record: 24 hr after stroke, co-treated with tPA 10 mg/kg i.v. at 6 hr; loading dose 1.5 μg/kg i.v. plus s.c. pump.
A further data set relates to MMP-9 & MMP-2. Kind of data set: Zymography of gelatinase activity of recombinant enzyme and stroke tissue. In kind it is biochemical. As to conditions: glibenclamide 10 μM; MMP inhibitor II 300 nM. As to the method:
Activation of MMP-9 & MMP-2 in stroke tissue was compared to controls. […] Calbiochem). Next, the supernatants underwent a gelatinase purification process with gelatin-Sepharose 4B (Pharmacia), and Zymography was performed on the purified supernatants in sodium dodecyl sulfate gels containing gelatin (Rosenberg, 1994). Dried gels were scanned with a transparency scanner, and images were analyzed by densitometry. The relative lysis of an individual sample was expressed as the integrated density value of its band and divided by the protein content of the sample.

Data set [6] can be described thus: Rodent model of stroke, glibenclamide vs. saline by subcutaneous mini-pump. In kind it is in vivo, rat.
In another data set the test system is gliotic capsule. The settings on record: for GFAP response / gliotic capsule: glibenclamide 1 μM or diazoxide 10 μM at 0.5 μl/hr × 7 days.
Data set [7] relates to native reactive astrocytes (NRAs). In kind it is cell-based, rat.
The subject of the next data set is SUR1. The experiment in a line: SUR1 knockdown by antisense oligodeoxynucleotide infusion at gelfoam implantation site. Type of data set: in vivo, rat. The settings on record: ODN infused 14 days; vs. scrambled sequence ODN.
Where [8] appears, read: glibenclamide 1 μM with Na azide 1 mM.

With `C[C@@H]1O[C@@H](O[C@H]2C[C@@H](O)[C@]3(CO)[C@H]4[C@H](O)C[C@]5(C)[C@@H](C6=CC(=O)OC6)CC[C@]5(O)[C@@H]4CC[C@]3(O)C2)[C@H](O)[C@H](O)[C@H]1O` [ouabain], the Depolarization entry in data set [1] (1 mM ouabain) is recorded as “small reversible depolarization”.
The molecule `[N-]=[N+]=[N-]` [NaN3, Sodium azide] came in with an Em after depolarization in data set [1] of −4.3±0.9 mV. In [2], the “Time to apparent blebbing after exposure” value was 10 to 15 min and 7 to 10 min.
With `COc1ccc(Cl)cc1C(=O)NCCc1ccc(S(=O)(=O)NC(=O)NC2CCCCC2)cc1` [glibenclamide], the “Blebbing on NaN3 in presence of glibenclamide” value in data set [2] (pretreated cells, observed 30 min) is given as “does not cause blebbing; also recorded: remained phase bright with no pathological deterioration”. Besides, the “annexin V labeling (apoptotic death)” value in data set [3] (setting [8]) is listed as “not significantly different”. Also, the “number of PI-positive cells (necrotic death)” value in data set [3] (setting [8]) is on record as “dramatically decreased; also recorded: largely prevented”. Further, the “Infarct volume, percent of hemisphere volume” value in data set [4] (2 days after MCAO) worked out at 16.7±2.2%; in data set [4] (7 days after MCAO) it was 15.2±1.2%. Moreover, the “Stroke volume, percent of hemisphere volume” value in [4] (48 hr after stroke, 10 male rats per group) is 15.5±2.3%. In addition, the “Stroke volume vs. saline at 48 hr” value in data set [4] (begun 2 hr after stroke, loading dose 3.3 μg/kg i.p.) is on record as “significant reduction in stroke volume”; in [4] (begun 4 hours after MCAO, loading dose 3.3 μg/kg i.p.), “not statistically significant”; in [4] (begun 4 hours after MCAO, loading dose 33.0 μg/kg i.p. with glucose 1 gm/kg), “statistically significant reductions in stroke volume”; in data set [4] (begun 6 hours after MCAO, loading dose 33.0 μg/kg i.p. with glucose 1 gm/kg), “statistically significant reductions in stroke volume”; in data set [4] (infusion 75 ng/hr begun immediately after stroke, no loading dose), “significant reduction in stroke volume”. The “Animals with hemorrhagic conversion” value in [5] was 1 of 6 and ⅕. Also, in the data set on MMP-9 & MMP-2, the Gelatinase activity entry is “did not directly inhibit gelatinase activity”. In data set [6] (rat, in vivo, sc), the “3-day mortality after stroke” value came out at 28%. Besides, the “Excess water in stroke hemisphere” value in data set [6] (vs. saline-treated rats, n=5 per group) is recorded as “only half as much excess water”. The figures for the “GFAP response / gliotic capsule” value in the data set with gliotic capsule and in the data set with gliotic capsule (listed as Glibenclamide) were “well defined gliotic capsule” and “reduced the overall injury response”, respectively. Moreover, the “Inflammatory response / PMN infiltration” value with gliotic capsule (infusion into site of gelatin sponge) is listed as “minimized the inflammatory response”. Under “8 hr after MCAO, supplemental glucose 1 gm/kg i.p. at 4 hr”, the “Reduction of edema with added glucose” value is listed as “just as effective in reducing edema”. For the same molecule, the “Rise of water in involved hemisphere” value (8 hr after stroke, saline 3.4%) is listed as 2.0%. Further, the “Rise of water in TTC(+) tissue” value (8 hr after stroke, saline 5.4%) is 2.5%. Moreover, under “8 hr after stroke, saline 78.7±1.0%”, the “Water in TTC(−) tissue of involved hemisphere” value is given as 78.6±0.4%. The “Water content of involved hemisphere” value (8 hr after stroke, saline 81.3±0.5%, control hemisphere 77.9±0.2%) stood at 79.9±0.3%. The “Water in TTC(+) tissue of involved hemisphere” value (8 hr after stroke, saline 83.4±1.1%) turned out to be 80.5±0.3%. This molecule gave a Serum glucose (rat, in vivo) of 93 ± 3 mg/dL. Moreover, the “Mortality during 7 days after MCA stroke” value (rat, in vivo, sc) amounted to 24%.
For the molecule `CC[N+](CC)(CC)CC.[Cl-]` [TEA, tetraethylammonium chloride], the “Block of large outward currents” value in data set [7] is listed as “partially blocked”.
Same read-out and setting: under “charybdotoxin: toxin partially blocking large conductance Ca2+-activated K+ channel currents” stands “partially blocked”; under “iberiotoxin: toxin partially blocking large conductance Ca2+-activated K+ channel currents (QFTDVDCSVSKECWSVCKDLFGVDRGKCMGKKCRCYQ)”, “partially blocked”.
On to `CC1=NS(=O)(=O)c2cc(Cl)ccc2N1` [diazoxide], for which the “Blebbing with channel opener alone” value in [2] (no ATP depletion) was “blebbing occurs even without ATP depletion; also recorded: developed progressive blebbing consistent with cytotoxic edema”. In data set [3], the “Necrotic death by channel opener” value is recorded as “necrotic death can also be induced by diazoxide”.
Regarding “SUR1KD: SUR1 antisense oligodeoxynucleotide 5′-GGCCGAGTGGTTCTCGGT-3′ (SEQ ID NO: 9) (DNA, backbone not given here)”, the “Depolarization on application of Na azide” value in data set [1] came to 8.7±1.7 mV. In data set [2] (cells from SUR1KD), the “Membrane blebbing after Na azide” value was “not observed”. For the same molecule, the “SUR1 expression in gliotic capsule (immunoblot)” value in the data set on SUR1 is recorded as “significant reduction in SUR1 expression”.
As for `Nc1ccncc1` [4-AP, 4-aminopyridine], the “Outward current remaining in presence of charybdotoxin” value in [7] was “further blocked”.
For `OC[C@@H](O)[C@@H](O)[C@H](O)[C@H](O)CO` [mannitol], in data set [1] (50 mM mannitol), the “Effect on NaN3-induced depolarization” value is “neither the time course nor the magnitude of the depolarization is affected”. Further, the “Delay of bleb formation after exposure to NaN3” value in data set [2] (50 mM mannitol, 350 mOsm) is above 30 min.
